Data from patent EP4818168A1, “FUSED RING COMPOUND, PHARMACEUTICAL COMPOSITION THEREOF AND USE THEREOF” (priority 2023, dated 2025).

target: T1, AURKA (Homo sapiens, UniProt O14965); test: not given; assay type: cell-based; conditions: 100 nM compound, Jurkat cells, 24 h, Table 2
T1 construct: endogenous in cells; host or cells: Jurkat cells
T1 sequence (O14965 1-403): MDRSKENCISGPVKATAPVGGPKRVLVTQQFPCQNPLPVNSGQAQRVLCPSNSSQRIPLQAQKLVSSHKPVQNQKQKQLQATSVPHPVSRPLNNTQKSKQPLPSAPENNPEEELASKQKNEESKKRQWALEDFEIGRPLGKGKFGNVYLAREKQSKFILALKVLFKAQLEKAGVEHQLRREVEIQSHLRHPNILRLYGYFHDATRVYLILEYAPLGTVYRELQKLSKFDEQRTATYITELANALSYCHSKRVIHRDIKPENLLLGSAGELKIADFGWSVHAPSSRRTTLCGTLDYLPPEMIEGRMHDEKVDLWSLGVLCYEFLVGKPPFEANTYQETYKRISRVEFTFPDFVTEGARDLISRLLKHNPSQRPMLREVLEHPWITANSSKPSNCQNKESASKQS
Method in brief: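 Jurkat cells seeded at 1×10^6 cells/500 µL and treated with compound; lysates run on SDS-PAGE, blotted to nitrocellulose and probed overnight at 4°C for AURKA. Chemiluminescent or fluorescent band intensity fitted to a curve to give DC50 for protein degradation.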

SMILES | Percentage of AURKA Degradation Induced by 100 nM Compound in Jurkat Cells
O=C1CCN(c2ccc(N3CCC4(CC3)C[C@H](N3CCN(c5ccc(Nc6ncc7c(n6)-c6ccc(Cl)cc6C(c6c(F)cccc6F)=NC7)cc5)CC3)CO4)nc2)C(=O)N1 [Compound A342] | +++ (Degradation > 70%)
CP(C)(=O)c1cc(Nc2ncc3c(n2)-c2ccc(Cl)cc2C(c2c(F)cccc2F)=NC3)ccc1N1CCN(C2CCN(c3ccc(N4CCC(=O)NC4=O)cn3)CC2)CC1=O [Compound A303] | +++ (Degradation > 70%)
O=C1CCN(c2ccc(N3CC(C(=O)N4CCN(c5ccc(Nc6ncc7c(n6)-c6ccc(Cl)cc6C(c6c(F)cccc6F)=NC7)cc5)CC4)C3)nc2)C(=O)N1 [Compound A274] | +++ (Degradation > 70%)
O=C1CCN(c2ccc(N3CCN(C(=O)C4CN(c5ccc(Nc6ncc7c(n6)-c6ccc(Cl)cc6C(c6c(F)cccc6F)=NC7)cc5)CCO4)CC3)nc2)C(=O)N1 (stereo not drawn) [Compound A308] | +++ (Degradation > 70%)
O=C1CCN(c2ccc(N3CCN(C(=O)C4CCN(C56CC(Nc7ncc8c(n7)-c7ccc(Cl)cc7C(c7c(F)cccc7F)=NC8)(C5)C6)CC4)CC3)nc2)C(=O)N1 [Compound A243] | +++ (Degradation > 70%)
O=C1CCN(c2ccc(N3CCN(CC4(F)CN(c5ccc(Nc6ncc7c(n6)-c6ccc(Cl)cc6C(c6nccs6)=NC7)cc5)C4)CC3)nc2)C(=O)N1 [Compound A291] | +++ (Degradation > 70%)
O=C1CCN(c2cnc(N3CCN(CCNC(=O)c4ccc(Nc5ncc6c(n5)-c5ccc(C7CC7)cc5C(c5c(F)cccc5F)=NC6)cc4)CC3)s2)C(=O)N1 [Compound A134] | +++ (Degradation > 70%)
COc1ccc2c(c1)C(c1c(F)cccc1F)=NCc1cnc(Nc3ccc(C(=O)NC4CC5(CCN(c6ccc(N7CCC(=O)NC7=O)cn6)CC5)C4)cc3)nc1-2 [Compound A122] | +++ (Degradation > 70%)
CC(C1CCN(c2ccc(N3CCC(=O)NC3=O)cn2)CC1)N1CCN(C23CC(Nc4ncc5c(n4)-c4ccc(Cl)cc4C(c4c(F)cccc4F)=NC5)(C2)C3)C(=O)C1 (stereo not drawn) [Compound A302] | +++ (Degradation > 70%)
O=C1CCN(c2ccc(C3CN(C4CN(C(=O)c5ccc(Nc6ncc7c(n6)-c6ccc(Cl)cc6C(c6c(F)cccc6F)=NC7)cc5)C4)C3)nc2)C(=O)N1 [Compound A120] | + (Degradation ≤ 30%)
O=C1CCN(c2ccc(N3CCC4(CC3)CC(NC(=O)c3ccc(Nc5ncc6c(n5)-c5ccc(OC7CC7)cc5C(c5c(F)cccc5F)=NC6)cc3)C4)nc2)C(=O)N1 [Compound A168] | +++ (Degradation > 70%)
O=C1CCN(c2ccc(N3CCOC(C(=O)N4CCN(c5ccc(Nc6ncc7c(n6)-c6ccc(Cl)cc6C(c6nccs6)=NC7)cc5)CC4)C3)nc2)C(=O)N1 (stereo not drawn) [Compound A343] | +++ (Degradation > 70%)

same assay, conditions: 1 µM compound, Jurkat cells, 24 h, Table 2

SMILES | Percentage of AURKA Degradation Induced by 1 µM Compound in Jurkat Cells
O=C1CCN(c2ccc(N3CCC4(CC3)C[C@H](N3CCN(c5ccc(Nc6ncc7c(n6)-c6ccc(Cl)cc6C(c6c(F)cccc6F)=NC7)cc5)CC3)CO4)nc2)C(=O)N1 [Compound A342] | +++ (Degradation > 70%)
CP(C)(=O)c1cc(Nc2ncc3c(n2)-c2ccc(Cl)cc2C(c2c(F)cccc2F)=NC3)ccc1N1CCN(C2CCN(c3ccc(N4CCC(=O)NC4=O)cn3)CC2)CC1=O [Compound A303] | +++ (Degradation > 70%)
O=C1CCN(c2ccc(N3CC(C(=O)N4CCN(c5ccc(Nc6ncc7c(n6)-c6ccc(Cl)cc6C(c6c(F)cccc6F)=NC7)cc5)CC4)C3)nc2)C(=O)N1 [Compound A274] | +++ (Degradation > 70%)
O=C1CCN(c2ccc(N3CCN(C(=O)C4CN(c5ccc(Nc6ncc7c(n6)-c6ccc(Cl)cc6C(c6c(F)cccc6F)=NC7)cc5)CCO4)CC3)nc2)C(=O)N1 (stereo not drawn) [Compound A308] | +++ (Degradation > 70%)
O=C1CCN(c2ccc(N3CCN(C(=O)C4CCN(C56CC(Nc7ncc8c(n7)-c7ccc(Cl)cc7C(c7c(F)cccc7F)=NC8)(C5)C6)CC4)CC3)nc2)C(=O)N1 [Compound A243] | +++ (Degradation > 70%)
O=C1CCN(c2ccc(N3CCN(CC4(F)CN(c5ccc(Nc6ncc7c(n6)-c6ccc(Cl)cc6C(c6nccs6)=NC7)cc5)C4)CC3)nc2)C(=O)N1 [Compound A291] | +++ (Degradation > 70%)
O=C1CCN(c2cnc(N3CCN(CCNC(=O)c4ccc(Nc5ncc6c(n5)-c5ccc(C7CC7)cc5C(c5c(F)cccc5F)=NC6)cc4)CC3)s2)C(=O)N1 [Compound A134] | ++ (30% < Degradation ≤ 70%)
COc1ccc2c(c1)C(c1c(F)cccc1F)=NCc1cnc(Nc3ccc(C(=O)NC4CC5(CCN(c6ccc(N7CCC(=O)NC7=O)cn6)CC5)C4)cc3)nc1-2 [Compound A122] | +++ (Degradation > 70%)
CC(C1CCN(c2ccc(N3CCC(=O)NC3=O)cn2)CC1)N1CCN(C23CC(Nc4ncc5c(n4)-c4ccc(Cl)cc4C(c4c(F)cccc4F)=NC5)(C2)C3)C(=O)C1 (stereo not drawn) [Compound A302] | +++ (Degradation > 70%)
O=C1CCN(c2ccc(C3CN(C4CN(C(=O)c5ccc(Nc6ncc7c(n6)-c6ccc(Cl)cc6C(c6c(F)cccc6F)=NC7)cc5)C4)C3)nc2)C(=O)N1 [Compound A120] | + (Degradation ≤ 30%)
O=C1CCN(c2ccc(N3CCC4(CC3)CC(NC(=O)c3ccc(Nc5ncc6c(n5)-c5ccc(OC7CC7)cc5C(c5c(F)cccc5F)=NC6)cc3)C4)nc2)C(=O)N1 [Compound A168] | +++ (Degradation > 70%)
O=C1CCN(c2ccc(N3CCOC(C(=O)N4CCN(c5ccc(Nc6ncc7c(n6)-c6ccc(Cl)cc6C(c6nccs6)=NC7)cc5)CC4)C3)nc2)C(=O)N1 (stereo not drawn) [Compound A343] | +++ (Degradation > 70%)

test system: H82 cells; test: cells; assay type: cell-based; conditions: Homo sapiens, NCI-H82, read-out: IC50 in H82 Cells
Method in brief: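 H82 cells in RPMI1640 + 10% FBS exposed to compound (0.1% DMSO final) for 6 days at 37 °C, 5% CO2. Viability read by CellTiter-Glo ATP luminescence, normalised to DMSO and medium controls; IC50 from nonlinear regression of the dose–survival curve.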

SMILES | IC50
O=C1CCN(c2ccc(N3CCC4(CC3)C[C@H](N3CCN(c5ccc(Nc6ncc7c(n6)-c6ccc(Cl)cc6C(c6c(F)cccc6F)=NC7)cc5)CC3)CO4)nc2)C(=O)N1 [Compound A342] | < 1000 nM
O=C1CCN(c2ccc(C3CN(C4CN(C(=O)c5ccc(Nc6ncc7c(n6)-c6ccc(Cl)cc6C(c6c(F)cccc6F)=NC7)cc5)C4)C3)nc2)C(=O)N1 [Compound A120] | < 1000 nM

same assay, conditions: Homo sapiens, NCI-H82; H82 cells, 4000 cells/well, CellTiter-Glo; read-out: IC50 in H82 Cells

SMILES | IC50
CP(C)(=O)c1cc(Nc2ncc3c(n2)-c2ccc(Cl)cc2C(c2c(F)cccc2F)=NC3)ccc1N1CCN(C2CCN(c3ccc(N4CCC(=O)NC4=O)cn3)CC2)CC1=O [Compound A303] | < 1000 nM
O=C1CCN(c2ccc(N3CC(C(=O)N4CCN(c5ccc(Nc6ncc7c(n6)-c6ccc(Cl)cc6C(c6c(F)cccc6F)=NC7)cc5)CC4)C3)nc2)C(=O)N1 [Compound A274] | < 1000 nM
O=C1CCN(c2ccc(N3CCN(C(=O)C4CN(c5ccc(Nc6ncc7c(n6)-c6ccc(Cl)cc6C(c6c(F)cccc6F)=NC7)cc5)CCO4)CC3)nc2)C(=O)N1 (stereo not drawn) [Compound A308] | < 1000 nM
O=C1CCN(c2ccc(N3CCN(C(=O)C4CCN(C56CC(Nc7ncc8c(n7)-c7ccc(Cl)cc7C(c7c(F)cccc7F)=NC8)(C5)C6)CC4)CC3)nc2)C(=O)N1 [Compound A243] | < 1000 nM
O=C1CCN(c2ccc(N3CCN(CC4(F)CN(c5ccc(Nc6ncc7c(n6)-c6ccc(Cl)cc6C(c6nccs6)=NC7)cc5)C4)CC3)nc2)C(=O)N1 [Compound A291] | < 1000 nM
O=C1CCN(c2cnc(N3CCN(CCNC(=O)c4ccc(Nc5ncc6c(n5)-c5ccc(C7CC7)cc5C(c5c(F)cccc5F)=NC6)cc4)CC3)s2)C(=O)N1 [Compound A134] | < 1000 nM
COc1ccc2c(c1)C(c1c(F)cccc1F)=NCc1cnc(Nc3ccc(C(=O)NC4CC5(CCN(c6ccc(N7CCC(=O)NC7=O)cn6)CC5)C4)cc3)nc1-2 [Compound A122] | < 1000 nM
CC(C1CCN(c2ccc(N3CCC(=O)NC3=O)cn2)CC1)N1CCN(C23CC(Nc4ncc5c(n4)-c4ccc(Cl)cc4C(c4c(F)cccc4F)=NC5)(C2)C3)C(=O)C1 (stereo not drawn) [Compound A302] | < 1000 nM
O=C1CCN(c2ccc(N3CCC4(CC3)CC(NC(=O)c3ccc(Nc5ncc6c(n5)-c5ccc(OC7CC7)cc5C(c5c(F)cccc5F)=NC6)cc3)C4)nc2)C(=O)N1 [Compound A168] | < 1000 nM
O=C1CCN(c2ccc(N3CCOC(C(=O)N4CCN(c5ccc(Nc6ncc7c(n6)-c6ccc(Cl)cc6C(c6nccs6)=NC7)cc5)CC4)C3)nc2)C(=O)N1 (stereo not drawn) [Compound A343] | < 1000 nM
